How the values were obtained:
Format in all cases: in vivo
Stellaria media = assay: Herbicidal screen, post-emergence spray of seedlings in pots: Chickweed; conditions: Stellaria media, post-emergence, 240 h, assessed 10 days after treatment, read-out: percentage increase in necrosis relative to the control
Method: (§1) Compounds were screened at four concentrations (100, 50, 25 and 12.5 g/ha) against four weed species (Stellaria media—Chickweed; Abutilon theophrasti—velvetleaf; Amaranthus retroflexus—common amaranthus; Echinochloa crus-galli—Barnyard grass) and maize as a crop species. Seed were sown in 12.5 cm diameter pots (20 per pot for the weed species and 5 for maize). Seedlings were sprayed with 2 ml of compound two weeks after sowing, with 2 ml water used as the control. Each treatment was replicated three times. Plants were maintained at 20° C. and assessed 10 days after treatment. The assessment was based on the % plant in each pot showing growth. The data is presented in Table 1 in which d represents no detected effect at this concentration; c represents a percentage increase in necrosis relative to the control of 0.1-50; b represents a percentage increase in necrosis of 50-80; and a represents a percentage increase in necrosis of 80-100.

Abutilon theophrasti = assay: Herbicidal screen, post-emergence spray of seedlings in pots: velvetleaf; conditions: Abutilon theophrasti, post-emergence, 240 h, assessed 10 days after treatment, read-out: percentage increase in necrosis relative to the control
Method: as §1

Amaranthus retroflexus = assay: Herbicidal screen, post-emergence spray of seedlings in pots: common amaranthus; conditions: Amaranthus retroflexus, post-emergence, 240 h, assessed 10 days after treatment, read-out: percentage increase in necrosis relative to the control
Method: as §1

Echinochloa crus-galli = assay: Herbicidal screen, post-emergence spray of seedlings in pots: Barnyard grass; conditions: Echinochloa crus-galli, post-emergence, 240 h, assessed 10 days after treatment, read-out: percentage increase in necrosis relative to the control
Method: as §1

maize = assay: Herbicidal screen, post-emergence spray of seedlings in pots: crop species; conditions: Zea mays, post-emergence, 240 h, assessed 10 days after treatment, read-out: percentage increase in necrosis relative to the control
Method: as §1

four weed species = assay: Herbicidal screen, summary across the four weed species; conditions: summary in words, 12.5-100 g/ha
Method: as §1

Cl.Cn1c(C(F)(F)F)cc(=O)n(-c2cc(C(=O)NS(=O)(=O)C3CCNCC3)c(Cl)cc2F)c1=O [Example 2, 2-Chloro-4-fluoro-5-(3-methyl-2,6-dioxo-4-(trifluoromethyl)-3,6-dihydropyrimidin-1(2H)-yl)-N-(piperidin-4-ylsulfonyl)benzamide hydrochloride]
pest or weed control at 12.5 g/ha (Stellaria media): 50 to 80%
pest or weed control at 25 g/ha (Stellaria media): 50 to 80%
pest or weed control at 50 g/ha (Stellaria media): 50 to 80%
pest or weed control at 100 g/ha (Stellaria media): 80 to 100%
pest or weed control at 12.5 g/ha (Abutilon theophrasti): 50 to 80%
pest or weed control at 25 g/ha (Abutilon theophrasti): 50 to 80%
pest or weed control at 50 g/ha (Abutilon theophrasti): 50 to 80%
pest or weed control at 100 g/ha (Abutilon theophrasti): 80 to 100%
pest or weed control at 12.5 g/ha (Amaranthus retroflexus): 80 to 100%
pest or weed control at 25 g/ha (Amaranthus retroflexus): 80 to 100%
pest or weed control at 50 g/ha (Amaranthus retroflexus): 80 to 100%
pest or weed control at 100 g/ha (Amaranthus retroflexus): 80 to 100%
pest or weed control at 12.5 g/ha (Echinochloa crus-galli): 0.1 to 50%
pest or weed control at 25 g/ha (Echinochloa crus-galli): 50 to 80%
pest or weed control at 50 g/ha (Echinochloa crus-galli): 50 to 80%
pest or weed control at 100 g/ha (Echinochloa crus-galli): 80 to 100%
plant injury at 12.5 g/ha (maize): 0.1 to 50%
plant injury at 25 g/ha (maize): 0.1 to 50%
plant injury at 50 g/ha (maize): 50 to 80%
plant injury at 100 g/ha (maize): 50 to 80%
herbicidal activity against the weed species (four weed species): good activity across several of the weed species

CCC1(S(=O)(=O)NC(=O)c2cc(-n3c(=O)cc(C(F)(F)F)n(C)c3=O)c(F)cc2Cl)CC1 [Example 17, 2-Chloro-N-((1-ethylcyclopropyl)sulfonyl)-4-fluoro-5-(3-methyl-2,6-dioxo-4-(trifluoromethyl)-3,6-dihydropyrimidin-1(2H)-yl)benzamide]
pest or weed control at 12.5 g/ha (Stellaria media): 0.1 to 50%
pest or weed control at 25 g/ha (Stellaria media): 50 to 80%
pest or weed control at 50 g/ha (Stellaria media): 50 to 80%
pest or weed control at 100 g/ha (Stellaria media): 80 to 100%
pest or weed control at 12.5 g/ha (Abutilon theophrasti): 0.1 to 50%
pest or weed control at 25 g/ha (Abutilon theophrasti): 0.1 to 50%
pest or weed control at 50 g/ha (Abutilon theophrasti): 50 to 80%
pest or weed control at 100 g/ha (Abutilon theophrasti): 80 to 100%
pest or weed control at 12.5 g/ha (Amaranthus retroflexus): 0.1 to 50%
pest or weed control at 25 g/ha (Amaranthus retroflexus): 50 to 80%
pest or weed control at 50 g/ha (Amaranthus retroflexus): 80 to 100%
pest or weed control at 100 g/ha (Amaranthus retroflexus): 80 to 100%
pest or weed control at 12.5 g/ha (Echinochloa crus-galli): 0.1 to 50%
pest or weed control at 25 g/ha (Echinochloa crus-galli): 50 to 80%
pest or weed control at 50 g/ha (Echinochloa crus-galli): 50 to 80%
pest or weed control at 100 g/ha (Echinochloa crus-galli): 50 to 80%
plant injury at 12.5 g/ha (maize): 0.1 to 50%
plant injury at 25 g/ha (maize): 0.1 to 50%
plant injury at 50 g/ha (maize): 0.1 to 50%
plant injury at 100 g/ha (maize): 0.1 to 50%
herbicidal activity against the weed species (four weed species): good activity across several of the weed species

Cn1c(C(F)(F)F)cc(=O)n(-c2cc(C(=O)NS(=O)(=O)C3CCCC3)c(Cl)cc2F)c1=O [Example 13, 2-Chloro-N-(cyclopentylsulfonyl)-4-fluoro-5-(3-methyl-2,6-dioxo-4-(trifluoromethyl)-3,6-dihydropyrimidin-1(2H)-yl)benzamide]
pest or weed control at 12.5 g/ha (Stellaria media): 0.1 to 50%
pest or weed control at 25 g/ha (Stellaria media): 0.1 to 50%
pest or weed control at 50 g/ha (Stellaria media): 0.1 to 50%
pest or weed control at 100 g/ha (Stellaria media): 0.1 to 50%
pest or weed control at 12.5 g/ha (Abutilon theophrasti): 0.1 to 50%
pest or weed control at 25 g/ha (Abutilon theophrasti): 50 to 80%
pest or weed control at 50 g/ha (Abutilon theophrasti): 50 to 80%
pest or weed control at 100 g/ha (Abutilon theophrasti): 80 to 100%
pest or weed control at 12.5 g/ha (Amaranthus retroflexus): 50 to 80%
pest or weed control at 25 g/ha (Amaranthus retroflexus): 50 to 80%
pest or weed control at 50 g/ha (Amaranthus retroflexus): 80 to 100%
pest or weed control at 100 g/ha (Amaranthus retroflexus): 80 to 100%
pest or weed control at 12.5 g/ha (Echinochloa crus-galli): 0.1 to 50%
pest or weed control at 25 g/ha (Echinochloa crus-galli): 0.1 to 50%
pest or weed control at 50 g/ha (Echinochloa crus-galli): 0.1 to 50%
pest or weed control at 100 g/ha (Echinochloa crus-galli): 0.1 to 50%
plant injury at 12.5 g/ha (maize): 0.1 to 50%
plant injury at 25 g/ha (maize): 0.1 to 50%
plant injury at 50 g/ha (maize): 0.1 to 50%
plant injury at 100 g/ha (maize): 0.1 to 50%
herbicidal activity against the weed species (four weed species): good activity across several of the weed species

— patent US11634390B2, “Agricultural chemicals” (GLOBACHEM NV, priority 2016, dated 2023)
